Measured values from patent US10760110B2, “Antibiotic testing and screening system” (priority 2017, dated 2020).
Values after ≈ are worked out from the molar mass of the structure shown. Read-outs that look alike come from different tables or passages of the source.

Legend:
Settings in all cases: Klebsiella pneumoniae
[1] = test system: K. pneumoniae NVT1001 ΔramRΔompK35/36 mutant and its revertants; experiment: Etest MIC, ΔramRΔompK35/36 mutant and its revertants (Table 7); format: cell-based
[2] = test system: K. pneumoniae NVT1001 strains with carbapenemase plasmids; experiment: Etest MIC of β-lactams, OmpK35/36 loss, ΔramR and/or carbapenemase (Table 9); format: cell-based, Klebsiella pneumoniae
Method in brief: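 Cloned resistance genes in pACYC177 or pACYC184 were electroporated into K. pneumoniae NVT1001. MICs were determined by Etest and rounded up to the next two-fold value. Ceftazidime and cefotaxime against the blaOXA-48 construct were also tested by CLSI broth microdilution, with breakpoints from CLSI 2017 (cephalothin CLSI 2015, moxifloxacin EUCAST 2017).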

[3] = test system: K. pneumoniae NVT1001 and its ΔompK35/36 and/or ΔramR mutants; experiment: Etest MIC, OmpK35/36 loss and AcrAB-TolC overexpression (ΔramR) strains (Table 6); format: cell-based, Klebsiella pneumoniae
Method in brief: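 Etest strips per kit instructions; off-scale intermediate readings rounded upward to the nearest two-fold concentration. Broth microdilution (CLSI) for ceftazidime, cefotaxime only. Breakpoints: CLSI 2017 generally, CLSI 2015 for cephalothin, EUCAST 2017 for moxifloxacin.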

`CC(=O)OCC1=C(C(=O)O)N2C(=O)[C@@H](NC(=O)Cc3cccs3)[C@H]2SC1` [Cephalothin] showed an MIC ([1]; ΔramRΔompK35/36::ompK35/36 revertant) of 64 µg/mL, an MIC ([1]; ΔramRΔompK35/36::ompK35 revertant) of over 256 µg/mL and an MIC ([1]; ΔramRΔompK35/36::ompK36 revertant) of 128 µg/mL. The MIC ([1]; ΔramRΔompK35/36::ramR revertant) was over 256 µg/mL, the MIC ([1]; ΔramRΔompK35/36::ramR::ompK35/36 revertant) was 8 µg/mL and the MIC ([1]; ΔramRΔompK35/36::ramR::ompK35 revertant) was 32 µg/mL. The MIC ([1]; ΔramRΔompK35/36::ramR::ompK36 revertant) was 8 µg/mL, the MIC ([1]; ΔramRΔompK35/36 mutant) was over 256 µg/mL and the MIC ([2]; IMP-8 on pACYC177, WT (NVT1001), read-out: MIC) was over 256 µg/mL. For the same molecule, the MIC ([2]; IMP-8 on pACYC177, Δ35 (ΔompK35 mutant)) was over 256 µg/mL, the MIC ([2]; IMP-8 on pACYC177, Δ35/36 (ΔompK35/36 mutant)) was over 256 µg/mL and the MIC ([2]; IMP-8 on pACYC177, Δ36 (ΔompK36 mutant)) was over 256 µg/mL. For the same molecule, the MIC ([2]; IMP-8 on pACYC177, ΔramR mutant) was over 256 µg/mL, the MIC ([2]; IMP-8 on pACYC177, ΔramRΔ35 (ΔramRΔompK35 mutant)) was over 256 µg/mL and the MIC ([2]; IMP-8 on pACYC177, ΔramRΔ35/36 (ΔramRΔompK35/36 mutant)) was over 256 µg/mL. For the same molecule, the MIC ([2]; IMP-8 on pACYC177, ΔramRΔ36 (ΔramRΔompK36 mutant)) was over 256 µg/mL, the MIC ([2]; KPC-2 on pACYC177, WT (NVT1001), read-out: MIC) was over 256 µg/mL and the MIC ([2]; KPC-2 on pACYC177, Δ35 (ΔompK35 mutant)) was over 256 µg/mL. For the same molecule, the MIC ([2]; KPC-2 on pACYC177, Δ35/36 (ΔompK35/36 mutant)) was over 256 µg/mL, the MIC ([2]; KPC-2 on pACYC177, Δ36 (ΔompK36 mutant)) was over 256 µg/mL and the MIC ([2]; KPC-2 on pACYC177, ΔramR mutant) was over 256 µg/mL. It also gave an MIC ([2]; KPC-2 on pACYC177, ΔramRΔ35 (ΔramRΔompK35 mutant)) of over 256 µg/mL, an MIC ([2]; KPC-2 on pACYC177, ΔramRΔ35/36 (ΔramRΔompK35/36 mutant)) of over 256 µg/mL and an MIC ([2]; KPC-2 on pACYC177, ΔramRΔ36 (ΔramRΔompK36 mutant)) of over 256 µg/mL. It also gave an MIC ([2]; KPC-3 on pACYC177, WT (NVT1001), read-out: MIC) of over 256 µg/mL, an MIC ([2]; KPC-3 on pACYC177, Δ35 (ΔompK35 mutant)) of over 256 µg/mL and an MIC ([2]; KPC-3 on pACYC177, Δ35/36 (ΔompK35/36 mutant)) of over 256 µg/mL. The MIC ([2]; KPC-3 on pACYC177, Δ36 (ΔompK36 mutant)) was over 256 µg/mL, the MIC ([2]; KPC-3 on pACYC177, ΔramR mutant) was over 256 µg/mL and the MIC ([2]; KPC-3 on pACYC177, ΔramRΔ35 (ΔramRΔompK35 mutant)) was over 256 µg/mL. The MIC ([2]; KPC-3 on pACYC177, ΔramRΔ35/36 (ΔramRΔompK35/36 mutant)) was over 256 µg/mL, the MIC ([2]; KPC-3 on pACYC177, ΔramRΔ36 (ΔramRΔompK36 mutant)) was over 256 µg/mL and the MIC ([2]; NDM-1 on pACYC177, WT (NVT1001), read-out: MIC) was over 256 µg/mL. It also gave an MIC ([2]; NDM-1 on pACYC177, Δ35 (ΔompK35 mutant)) of over 256 µg/mL, an MIC ([2]; NDM-1 on pACYC177, Δ35/36 (ΔompK35/36 mutant)) of over 256 µg/mL and an MIC ([2]; NDM-1 on pACYC177, Δ36 (ΔompK36 mutant)) of over 256 µg/mL. The MIC ([2]; NDM-1 on pACYC177, ΔramR mutant) was over 256 µg/mL, the MIC ([2]; NDM-1 on pACYC177, ΔramRΔ35 (ΔramRΔompK35 mutant)) was over 256 µg/mL and the MIC ([2]; NDM-1 on pACYC177, ΔramRΔ35/36 (ΔramRΔompK35/36 mutant)) was over 256 µg/mL. The MIC ([2]; NDM-1 on pACYC177, ΔramRΔ36 (ΔramRΔompK36 mutant)) was over 256 µg/mL, the MIC ([2]; OXA-48 on pACYC177, WT (NVT1001), read-out: MIC) was 256 µg/mL and the MIC ([2]; OXA-48 on pACYC177, Δ35 (ΔompK35 mutant)) was 256 µg/mL. It also gave an MIC ([2]; OXA-48 on pACYC177, Δ35/36 (ΔompK35/36 mutant)) of over 256 µg/mL, an MIC ([2]; OXA-48 on pACYC177, Δ36 (ΔompK36 mutant)) of over 256 µg/mL and an MIC ([2]; OXA-48 on pACYC177, ΔramR mutant) of over 256 µg/mL. The MIC ([2]; OXA-48 on pACYC177, ΔramRΔ35 (ΔramRΔompK35 mutant)) was over 256 µg/mL, the MIC ([2]; OXA-48 on pACYC177, ΔramRΔ35/36 (ΔramRΔompK35/36 mutant)) was over 256 µg/mL and the MIC ([2]; OXA-48 on pACYC177, ΔramRΔ36 (ΔramRΔompK36 mutant)) was over 256 µg/mL. For the same molecule, the MIC ([2]; VIM-1 on pACYC177, WT (NVT1001), read-out: MIC) was over 256 µg/mL, the MIC ([2]; VIM-1 on pACYC177, Δ35 (ΔompK35 mutant)) was over 256 µg/mL and the MIC ([2]; VIM-1 on pACYC177, Δ35/36 (ΔompK35/36 mutant)) was over 256 µg/mL. The MIC ([2]; VIM-1 on pACYC177, Δ36 (ΔompK36 mutant)) was over 256 µg/mL, the MIC ([2]; VIM-1 on pACYC177, ΔramR mutant) was over 256 µg/mL and the MIC ([2]; VIM-1 on pACYC177, ΔramRΔ35 (ΔramRΔompK35 mutant)) was over 256 µg/mL. The MIC ([2]; VIM-1 on pACYC177, ΔramRΔ35/36 (ΔramRΔompK35/36 mutant)) was over 256 µg/mL, the MIC ([2]; VIM-1 on pACYC177, ΔramRΔ36 (ΔramRΔompK36 mutant)) was over 256 µg/mL and the MIC ([2]; no supplemental plasmid, WT (NVT1001), read-out: MIC) was 8 µg/mL. It also gave an MIC ([2]; no supplemental plasmid, Δ35 (ΔompK35 mutant)) of 8 µg/mL, an MIC ([2]; no supplemental plasmid, Δ35/36 (ΔompK35/36 mutant)) of 256 µg/mL and an MIC ([2]; no supplemental plasmid, Δ36 (ΔompK36 mutant)) of 16 µg/mL. It also gave an MIC ([2]; no supplemental plasmid, ΔramR mutant) of 64 µg/mL, an MIC ([2]; no supplemental plasmid, ΔramRΔ35 (ΔramRΔompK35 mutant)) of 64 µg/mL and an MIC ([2]; no supplemental plasmid, ΔramRΔ35/36 (ΔramRΔompK35/36 mutant)) of over 256 µg/mL. The MIC ([2]; no supplemental plasmid, ΔramRΔ36 (ΔramRΔompK36 mutant)) was over 256 µg/mL, the MIC ([3]; WT, NVT1001, read-out: MIC) was 8 µg/mL (≈ 20.2 µM) and the MIC ([3]; Δ35, ΔompK35 mutant) was 8 µg/mL (≈ 20.2 µM). For the same molecule, the MIC ([3]; Δ35/36, ΔompK35/36 mutant) was 256 µg/mL (≈ 646 µM), the MIC ([3]; Δ36, ΔompK36 mutant) was 16 µg/mL (≈ 40.4 µM) and the MIC ([3]; ΔramR mutant) was 64 µg/mL (≈ 161 µM). The MIC ([3]; ΔramRΔ35, ΔramRΔompK35 mutant) was 64 µg/mL (≈ 161 µM), the MIC ([3]; ΔramRΔ35/36, ΔramRΔompK35/36 mutant) was over 256 µg/mL and the MIC ([3]; ΔramRΔ36, ΔramRΔompK36 mutant) was over 256 µg/mL.
